Data: US20240208972A1, “LRRK2 INHIBITORS AND USES THEREOF” (NEURON23, INC., priority 2022, published 2024)

Assays:
[1] = target: T1, wt human LRRK2, catalytic site (Homo sapiens, UniProt Q5S007); assay: TR-FRET LanthaScreen Tb Kinase Activity Assay, LRRK2 kinase inhibition; type: biochemical; conditions: 2 nM wt human LRRK2, 400 nM peptide, 38 μM ATP
T1 construct: wt human LRRK2, catalytic site, catalytic site (ThermoFisher/USA); purchased ThermoFisher
Description: The compounds disclosed herein were tested for their inhibitory effect on LRRK2 kinase according to the following procedures.
The protocol for basic TR-FRET LanthaScreen Tb Kinase Activity Assay inhibitor studies is as follows. LanthaScreen Kinase Activity Assays (ThermoFisher/USA) to evaluate inhibitors were performed by addition of 100 nL of test compound in the corresponding DMSO dilutions/5 L of kinase/fluorescein-ERM(LRRKtide) peptide mixture, Compound & kinase were pre-incubated for 15 minutes, then 5 μl of ATP into 384 well small volume plates. After incubation for 120 minutes at room temperature, the detection reagents containing Tb-anti-pLRRKtide antibody were added to monitor the phosphrylation level of peptide. Then, after 60 min minutes incubation at room temperature plates were read in Envision. Data analysis of emission ratios was according to the LanthaScreen Tb Kinase Activity Assay protocol.
Kinase and assay components were adjusted to final concentrations according to the kit protocol. For LRRK2: 2 nM wt human LRRK2, catalytic site, catalytic site (ThermoFisher/USA), 400 nM peptide, 38 μM ATP in 1× Kinase Buffer A.
Basic protocol for TR-FRET LanthaScreen Tb Kinase Activity Assay inhibitor studies involved two steps: Enzymatic step: Addition of 100 nl of test compound in corresponding DMSO dilutions, 5 μl of kinase/substrate mixture, 5 μl of ATP into 384 well small volume plates. Incubation for 120 minutes at room temperature.
Detection step: Addition of 10 μl EDTA & antibody, read plate after 60 minutes. Data analysis of emission ratios according to KinEASE assay protocol.
Kinase and assay components were adjusted to final concentrations according to the kit protocol.

Caco-2 cells = assay: Caco-2 bidirectional permeability; type: in vitro ADME; conditions: for Caco-2 A2B (10^−6 cm/s): A to B; for Caco-2 A2B (10^−6 cm/s) / Caco-2 B2A (10^−6 cm/s): HBSS pH 7.4, 2 hours; for Caco-2 B2A (10^−6 cm/s): B to A; for Caco-2 ER: Efflux Ratio=Papp (BA)/Papp (AB)
Description: The compounds disclosed herein were tested in vitro on CaCo2 cell penetration according to the following procedures.
Test compounds were prepared in dimethyl sulfoxide (DMSO).
Caco-2 cells purchased from ATCC were seeded onto […] (PET) in 96-well Corning Insert plates at 1×10^5 cells/cm^2. The media were refreshed every 4 to 5 days until the 21st to 28th day for confluent cell monolayer formation.
Experiments were run in duplicate using a HBSS transport buffer containing 10 mM HEPES at pH 7.4. The test article TEST COMPOUND was tested bi-directionally at […] concentrations, the control compound digoxin was tested bi-directionally at 10 μM, and nadolol and metoprolol were tested at 2.0 μM in the A to B direction. Final DMSO concentrations were adjusted to less than 1%. The plates were incubated for 2 hours in a CO2 incubator at 37±1° C. with 5% CO2 at saturated humidity without shaking. Following incubation, samples were mixed with acetonitrile containing internal standard and centrifuged at 3200×g for 10 minutes. Then 200 μL of supernatant was taken from all samples. For TEST COMPOUND and digoxin, the supernatant was diluted with 200 μL of ultra-pure water and for nadolol and metoprolol, the supernatant was diluted with 600 μL of ultra-pure water. All samples were analyzed by LC-MS/MS. Concentrations of TEST COMPOUND and control compounds were determined in starting solutions, donor well solutions, and receiver well solutions using peak area ratios (PAR) of analyte to internal standard. After the transport assay, a lucifer yellow rejection assay was run to determine the Caco-2 cell monolayer integrity.
The apparent permeability (Papp), the % recovery and the efflux ratio were calculated as follows: • 1. Papp=(dCr/dt)×Vr/(A×C0) • 2. % Recovery=100×[(Vr×Cr)+(Vd×Cd)]/(Vd×C0) • 3. Efflux Ratio=Papp (BA)/Papp (AB) • Where: • dCr/dt is the slope of the cumulative concentration in the receiver compartment versus time (mM/s). • Vr and Vd is the volume in the receiver and donor compartments (0.075 mL on the apical side, 0.25 mL on the basolateral side), respectively. • A is the surface area of the cell monolayer (0.0804 cm^2). • C0 is the measured donor concentrations (μM) at the beginning of the experiment. • Cd and Cr are the final measured concentrations in the donor and receiver compartments, respectively.
The cell monolayer tight junction integrity assay was conducted after completion of the transport assay by adding Lucifer Yellow (LY) to the apical wells at 100 μM and incubating the cells for 30 minutes. Following incubation, tight junction integrity was assessed from LY concentrations in the basolateral compartment (receiver well) and the apical compartment (donor well) using fluorescence detection as follows: […]

[2] = Human hepatocyte stability, in vitro h-Hept CLpredict; type: in vitro ADME; conditions: cryopreserved hepatocytes, predicted hepatic clearance, cells without asterisk, read-out: hHep Cl
Description: The compounds disclosed herein were tested in vitro on human hepatocyte for in vitro h-Hept CLpredict according to the following procedures. • 1. Compound sock solutions were prepared by dissolving test compound and positive control in dimethyl sulfoxide (DMSO) at a concentration of 10 mM. Stock solutions were then diluted to 100 μM solutions by combining 198 μL of 50% acetonitrile/50% water with 2 μL of the 10 mM stock stock in separate conical tubes. • 2. Cryopreserved hepatocytes were prepared as follows: Incubation medium (William's E Medium supplemented with GlutaMAX) and hepatocyte thawing medium were placed in a 37° C. water bath and allowed to warm for at least 15 minutes prior to use. Cryopreserved hepatocytes were removed from storage, ensuring that vials remained at cryogenic temperatures until thawed. Cells were thawed by placing the vials in a 37° C. water bath and gently shaking the vials for 2 minutes. After thawing was completed, vials were sprayed with 70% ethanol and transferred to a biosafety cabinet. Hepatocytes were transferred into 50 mL conical tube containing thawing medium using wide-bore pipette tips. Tubes were placed into a centrifuge and spun at 100 g for 10 minutes. Then thawing medium was aspirated and hepatocytes were resuspended in enough incubation medium to yield−1.5×10^6 cells/mL. Cells were counted using acridine orange and propidium iodide (AO/PI) staining, and the viable cell density was determined. Cells were diluted with incubation medium to a working cell density of 0.5×10^6 viable cells/mL. • 3. To determine hepatocyte stability, 198 μL of hepatocytes were transferred into each well of a 96-well non-coated plate. Plates were placed in an incubator to allow the hepatocytes to warm for 10 minutes. • 4. The reaction was started by transferring 2 μL of the 100 μM test compound or positive control solution into respective wells of the 96-well non-coated plates. Plates were returned to the incubator until 25 μL aliquots of well contents were sampled at time points of 0, 15, 30, 60, 90 and 120 minutes. The aliquots were then mixed with 6 volumes (150 μL) of acetonitrile containing internal standard, IS (100 nM alprazolam, 200 nM caffeine and 100 nM tolbutamide) to terminate the reaction and vortexed for 5 minutes. After centrifuging the samples for 45 minutes at 3,220 g, aliquots of 100 μL of the supernatant were taken and diluted with 100 μL of ultra-pure water. The mixture was used for LC/MS/MS analysis. All incubations were performed in duplicate.
All calculations were carried out using Microsoft Excel. Peak area ratios (PAR) were determined from extracted ion chromatograms. The in vitro half-life (t1/2) of parent compound was determined by regression analysis of the percent parent disappearance vs. time curve as follows:
The in vitro half-life (in vitro t1/2) was determined from the slope value:
Conversion of the in vitro t1/2 (in minutes) into the in vitro intrinsic clearance (in vitro CLint, in μL/min/1×10^6 cells) was done using the following equation (mean of duplicate determinations): […]
The scaled-up intrinsic clearance (CLint, mL/min/kg), predicted hepatic clearance (CLH, mL/min/kg) and hepatic extraction ratio (ER) were calculated using the following equations:
CLint=(0.693/t1/2)*(1/(hepatocyte concentration (0.5*10^6 cells/mL))*scaling factors (Table (A)
• CLHept-predict=(QH*Scaled-up CLint*fub)/(QH+Scaled-up CLint*fub) • ER=CLH/QH • Where: • V=incubation volume (0.2 mL) • N=number of hepatocytes per well (0.1*10^6 cells) • QH=hepatic blood flow (mL/min/kg) (Table (A)
• fub=fraction of unbound drug in plasma, assumed to be 1 • Values used for calculation of the predicted hepatic clearance parameters data processing rules are outlined in the following tables (A) (B)

T1 sequence (Q5S007 1879-2138 limits assumed): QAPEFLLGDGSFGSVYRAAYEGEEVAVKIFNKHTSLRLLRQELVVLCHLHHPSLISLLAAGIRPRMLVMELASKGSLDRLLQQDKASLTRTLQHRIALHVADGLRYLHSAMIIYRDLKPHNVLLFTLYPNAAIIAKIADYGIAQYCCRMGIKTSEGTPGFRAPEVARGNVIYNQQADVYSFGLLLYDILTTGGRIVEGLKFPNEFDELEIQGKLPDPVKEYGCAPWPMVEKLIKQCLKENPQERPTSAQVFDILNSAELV

IC50 [1] [nM]	Caco-2 A2B (10^−6 cm/s) (Caco-2 cells)	Caco-2 B2A (10^−6 cm/s) (Caco-2 cells)	Caco-2 ER (Caco-2 cells)	CLhep predicted at 1 µM [2] [mL/min/kg]	SMILES
< 2	H (H (High permeability)”: A2B (B2A)>5)	H (H (High permeability)”: A2B (B2A)>5)	N (N (Non-substrate)”: ER<2.5)	6.3 to 14.7	Cc1n[nH]c2c1N=C(c1c(F)cccc1F)Nc1c-2cc(N2CCC(C)(C#N)CC2)nc1C [Example 43, 1-[8-(2,6-difluorophenyl)-5,11-dimethyl-3,4,7,9,12-pentazatricyclo[8.4.0.02,6]tetradeca-1(10),2(6),4,7,11,13-hexaen-13-yl]-4-methyl-piperidine-4-carbonitrile]
< 2	H (H (High permeability)”: A2B (B2A)>5)	H (H (High permeability)”: A2B (B2A)>5)	N (N (Non-substrate)”: ER<2.5)	6.3 to 14.7	Cc1n[nH]c2c1N=C(c1c(F)cccc1F)Nc1c-2cc(N2CCOCC2)nc1C(F)F [Example 44, 4-(7-(difluoromethyl)-5-(2,6-difluorophenyl)-3-methyl-1,6-dihydropyrazolo[4,3-d]pyrido[4,3-f][1,3]diazepin-9-yl)morpholine]
< 2	H (H (High permeability)”: A2B (B2A)>5)	H (H (High permeability)”: A2B (B2A)>5)	N (N (Non-substrate)”: ER<2.5)	< 6.3	COC[C@@H]1CN(c2cc3c(c(C)n2)NC(c2c(F)cccc2F)=Nc2c(C)n[nH]c2-3)CCO1 [Example 46, (2S)-4-[8-(2,6-difluorophenyl)-5,11-dimethyl-3,4,7,9,12-pentazatricyclo[8.4.0.02,6]tetradeca-1(10),2(6),4,7,11,13-hexaen-13-yl]-2-(methoxymethyl)morpholine]
< 2	H (H (High permeability)”: A2B (B2A)>5)	H (H (High permeability)”: A2B (B2A)>5)	N (N (Non-substrate)”: ER<2.5)	6.3 to 14.7	Cc1cc(-c2ccc3c(c2)-c2[nH]nc(C)c2N=C(c2c(F)cccc2F)N3)ccn1 [Example 52, 5-(2,6-difluorophenyl)-3-methyl-9-(2-methyl-4-pyridyl)-1,6-dihydropyrazolo [4,3-d] [1, 3] benzodiazepine]
< 2	H (H (High permeability)”: A2B (B2A)>5)	H (H (High permeability)”: A2B (B2A)>5)	N (N (Non-substrate)”: ER<2.5)	6.3 to 14.7	Cc1ccc(-c2ccc3c(c2)-c2[nH]nc(C)c2N=C(c2c(F)cccc2F)N3)cn1 [Example 53, 5-(2,6-difluorophenyl)-3-methyl-9-(6-methyl-3-pyridyl)-1,6-dihydropyrazolo[4,3-d][1,3]benzodiazepine]
< 2	H (H (High permeability)”: A2B (B2A)>5)	H (H (High permeability)”: A2B (B2A)>5)	N (N (Non-substrate)”: ER<2.5)	> 14.7	Cc1n[nH]c2c1N=C(c1c(F)cccc1F)Nc1cnc(N3CC4CC4C3)cc1-2 (stereo not shown) [Example 56, 13-(3-azabicyclo[3.1.0]hexan-3-yl)-8-(2,6-difluorophenyl)-5-methyl-3,4,7,9,12-pentazatricyclo[8.4.0.02,6]tetradeca-1(10),2(6),4,7,11,13-hexaene]

SMILES	IC50 [1] [nM]	Caco-2 A2B (10^−6 cm/s) (Caco-2 cells)	Caco-2 B2A (10^−6 cm/s) (Caco-2 cells)	Caco-2 ER (Caco-2 cells)	CLhep predicted at 1 µM [2] [mL/min/kg]
COc1nc(N2CCOCC2)cc2c1NC(c1c(F)cccc1F)=Nc1c(C)n[nH]c1-2 [Example 45, 4-[8-(2,6-difluorophenyl)-11-methoxy-5-methyl-3,4,7,9,12-pentazatricyclo[8.4.0.02,6]tetradeca-1(10),2(6),4,7,11,13-hexaen-13-yl]morpholine]	< 2	H (H (High permeability)”: A2B (B2A)>5)	M (M (Moderate permeability)”: 1≤A2B (B2A)≤5)	N (N (Non-substrate)”: ER<2.5)	6.3 to 14.7
CCOC[C@H]1CN(c2cc3c(c(C)n2)NC(c2c(F)cccc2F)=Nc2c(C)n[nH]c2-3)CCO1 [Example 51, (R)-4-(5-(2,6-difluorophenyl)-3,7-dimethyl-1,6-dihydropyrazolo[4,3-d]pyrido[4,3-f][1,3]diazepin-9-yl)-2-(ethoxymethyl)morpholine]	< 2	M (M (Moderate permeability)”: 1≤A2B (B2A)≤5)	H (H (High permeability)”: A2B (B2A)>5)	N (N (Non-substrate)”: ER<2.5)	6.3 to 14.7
